According to patent US4356186A, “Acetic acid derivatives and composition containing the same” (priority 1980, dated 1982):
Read-outs that look alike come from different tables or passages of the source.

System: carrageenin-induced hind paw edema
Assay: Anti-inflammatory activity (carrageenin-induced hind paw edema in rats)
Assay type: in vivo, Male Wistar rats
Conditions: for inhibition in vivo at 0.5 mg/kg / inhibition in vivo at 1 mg/kg / inhibition in vivo at 2 mg/kg / inhibition in vivo at 80 mg/kg / inhibition in vivo at 40 mg/kg / inhibition in vivo at 10 mg/kg / inhibition in vivo at 20 mg/kg / inhibition in vivo at 5 mg/kg: Rattus norvegicus, po; for inhibition in vivo at 0.5 mg/kg: 0.5 mg/kg p.o.; for inhibition in vivo at 1 mg/kg: 1 mg/kg p.o.; for inhibition in vivo at 2 mg/kg: 2 mg/kg p.o.; for anti-inflammatory activity compared with the known indomethacin / anti-inflammatory activity compared with the known aspirin: in words, from Table 1; for inhibition in vivo at 80 mg/kg: 80 mg/kg p.o.; for inhibition in vivo at 40 mg/kg: 40 mg/kg p.o.; for inhibition in vivo at 10 mg/kg: 10 mg/kg p.o.; for inhibition in vivo at 20 mg/kg: 20 mg/kg p.o.; for inhibition in vivo at 5 mg/kg: 5 mg/kg p.o.
Description: Anti-inflammatory activity (carrageenin-induced hind paw edema in rats)
The test was carried out in a similar manner as disclosed in Proc. Soc. Exptl.
Male Wistar rats, weighing 100-300 g, were used. A 1% aqueous carrageenin solution (0.1 ml) was administered subcutaneously into the hind foot pad of rats. Two and three hours after the carrageenin injection, the paw volume was measured and the swelling rate was calculated based on the paw volume before the carrageenin injection. The inhibitory rate was determined as compared with the average swelling rate of the control group to which only vehicle was administered. The test compounds were administered orally one hour before the carrageenin injection.

[1] = 2 h, two hours, read-out: Inhibitory rate, two hours after the carrageenin injection
[2] = 3 h, three hours, read-out: Inhibitory rate, three hours after the carrageenin injection

For `CC(C(=O)O)c1ccc2c(c1)OCC1CCCCC1C2=O` (stereo not drawn) [A, 2-(6,6a,7,8,9,10,10a,11-Octahydro-11-oxodibenz[b,e]oxepin-3-yl)propionicacid], the inhibition in vivo at 0.5 mg/kg [1] was 23.7%, the inhibition in vivo at 1 mg/kg [1] was 34.3% and the inhibition in vivo at 2 mg/kg [1] was 40.5%. For the same compound, the inhibition in vivo at 0.5 mg/kg [2] was 17.4%, the inhibition in vivo at 1 mg/kg [2] was 26.9% and the inhibition in vivo at 2 mg/kg [2] was 32.6%. The “anti-inflammatory activity compared with the known indomethacin” value was “comparable or superior to that of the known indomethacin”.

`O=C(O)Cc1ccc2c(c1)OCC1CCCCC1C2=O` (stereo not drawn) [B, 6,6a,7,8,9,10,10a,11-Octahydro-11-oxodibenz[b,e]oxepin-3-acetic acid] was tested, and the inhibition in vivo at 1 mg/kg [1] was 17.8%, the inhibition in vivo at 1 mg/kg [2] was 7.8% and the “anti-inflammatory activity compared with the known indomethacin” value was “comparable or superior to that of the known indomethacin”.

`CC(C(=O)O)c1ccc2c(c1)C(=O)C1CCCCC1CO2` (stereo not drawn) [C, 2-(6,6a,7,8,9,10,10a,11-Octahydro-11-oxodibenz[b,e]oxepin-2-yl)propionicacid] was tested, and the inhibition in vivo at 80 mg/kg [1] was 27.9%, the inhibition in vivo at 80 mg/kg [2] was 23.1% and the “anti-inflammatory activity compared with the known aspirin” value was “comparable or superior to that of the known aspirin”.

`CC(C(=O)O)c1ccc2c(c1)C(=O)C1CCCCC1CS2` (stereo not drawn) [D, 2-(6,6a,7,8,9,10,10a,11-Octahydro-11-oxodibenzo[b,e]thiepin-2-yl)propionicacid] gave an inhibition in vivo at 40 mg/kg [1] of 28.6%, an inhibition in vivo at 80 mg/kg [1] of 34% and an inhibition in vivo at 40 mg/kg [2] of 24.6%. For the same compound, the inhibition in vivo at 80 mg/kg [2] was 27.1% and the “anti-inflammatory activity compared with the known aspirin” value was “comparable or superior to that of the known aspirin”.

In the case of `O=C(O)Cc1ccc2c(c1)SCC1CCCCC1C2=O` (stereo not drawn) [E, 6,6a,7,8,9,10,10a,11-Octahydro-11-oxodibenzo[b,e]thiepin-3-acetic acid], the inhibition in vivo at 2 mg/kg [1] is reported as 26.3%, the inhibition in vivo at 2 mg/kg [2] is reported as 16.8% and the “anti-inflammatory activity compared with the known indomethacin” value is reported as “comparable or superior to that of the known indomethacin”.

With `CC(C(=O)O)c1ccc2c(c1)SCC1CCCCC1C2=O` (stereo not drawn) [G, 2-(6,6a,7,8,9,10,10a,11-Octahydro-11-oxodibenzo[b,e]thiepin-3-yl)propionicacid-B] the inhibition in vivo at 10 mg/kg [1] was 12%, the inhibition in vivo at 20 mg/kg [1] was 18.3% and the inhibition in vivo at 40 mg/kg [1] was 33.2%. The inhibition in vivo at 80 mg/kg [1] was 32.2%, the inhibition in vivo at 10 mg/kg [2] was 7.1% and the inhibition in vivo at 20 mg/kg [2] was 11%. The inhibition in vivo at 40 mg/kg [2] was 26.9%, the inhibition in vivo at 80 mg/kg [2] was 30.2% and the “anti-inflammatory activity compared with the known aspirin” value was “comparable or superior to that of the known aspirin”.

For `C=CCOC(=O)C(C)c1ccc2c(c1)SCC1CCCCC1C2=O` (stereo not drawn) [K, Allyl 2-(6,6a,7,8,9,10,10a,11-octahydro-11-oxodibenzo[b,e]thiepin-3-yl)propionate], the inhibition in vivo at 2 mg/kg [1] was 27%, the inhibition in vivo at 5 mg/kg [1] was 34.3% and the inhibition in vivo at 2 mg/kg [2] was 22.3%. It also gave an inhibition in vivo at 5 mg/kg [2] of 33.5%.

`CC(C(=O)OCC(=O)c1ccccc1)c1ccc2c(c1)SCC1CCCCC1C2=O` (stereo not drawn) [M, Phenacyl 2-(6,6a,7,8,9,10,10a,11-octahydro-11-oxodibenzo[b,e]thiepin-3-yl)propionate] gave an inhibition in vivo at 5 mg/kg [1] of 33.2% and an inhibition in vivo at 5 mg/kg [2] of 26.6%.

For `CC(C(=O)OCCOCCO)c1ccc2c(c1)SCC1CCCCC1C2=O` (stereo not drawn) [N, 2-(2-Hydroxyethoxy)ethyl 2-(6,6a,7,8,9,10,10a,11-octahydro-11-oxodibenzo[b,e]thiepin-3-yl)propionate], the inhibition in vivo at 2 mg/kg [1] was 15.8%, the inhibition in vivo at 5 mg/kg [1] was 43.9% and the inhibition in vivo at 2 mg/kg [2] was 13.2%. The inhibition in vivo at 5 mg/kg [2] was 28.1%.

`CC(C(=O)OCCN1CCOCC1)c1ccc2c(c1)SCC1CCCCC1C2=O` (stereo not drawn) [Q, 2-Morpholinoethyl 2-(6,6a,7,8,9,10,10a,11-octahydro-11-oxodibenzo[b,e]thiepin-3-yl)propionate] showed an inhibition in vivo at 2 mg/kg [1] of 25.4%, an inhibition in vivo at 5 mg/kg [1] of 28.9% and an inhibition in vivo at 2 mg/kg [2] of 22.8%. The inhibition in vivo at 5 mg/kg [2] was 22%.

`CC(C(=O)NO)c1ccc2c(c1)SCC1CCCCC1C2=O` (stereo not drawn) [S, 2-(6,6a,7,8,9,10,10a,11-Octahydro-11-oxodibenzo[b,e]thiepin-3-yl)propionohydroxamic acid] showed an inhibition in vivo at 2 mg/kg [1] of 21.9%, an inhibition in vivo at 5 mg/kg [1] of 31.5% and an inhibition in vivo at 2 mg/kg [2] of 18.5%. For the same compound, the inhibition in vivo at 5 mg/kg [2] was 29.9%.
